Assays:
Type in all cases: in vivo, rat
male Sprague-Dawley rats [1] = assay: Rotarod motor coordination; conditions: 10 mg/kg i.p., 30 minutes before test; vehicle 193.6 ± 14.9
male Sprague-Dawley rats [2] = assay: Complete Freund's Adjuvant; conditions: 48 hours after CFA injection (24 hours post-treatment)
male Sprague-Dawley rats [3] = assay: Brennan model of incisional pain
male Sprague-Dawley rats [4] = assay: Gastrointestinal transit of a charcoal meal; conditions: 30 mg/kg; vehicle 0.62 ± 0.02

## CN1C(=O)CN=C(c2ccccc2)c2cc(Cl)ccc21 [Diazepam, diazepam]
Male Sprague-Dawley rats [1]
  time spent on the rotarod: 60.1 ± 23.7 s

## O=C(O)Cc1ccccc1Nc1c(Cl)cccc1Cl [Diclofenac, diclofenac]
Male Sprague-Dawley rats [2]
  effect on edema: decreased edema

## CN1CC[C@]23c4c5ccc(O)c4O[C@H]2[C@@H](O)C=C[C@H]3[C@H]1C5 [morphine]
Male Sprague-Dawley rats [3]; 5 mg/kg s.c. once a day for 7 consecutive days
  effect of daily administration on anti-hyperalgesic effect (tolerance): blunted its effects on hyperalgesia
Male Sprague-Dawley rats [3]; after single s.c. administration
  duration of anti-hyperalgesic effect: < 6 h
Male Sprague-Dawley rats [4]
  relative distance traveled (gastrointestinal transit): 0.22 ± 0.02
